The record followed here is patent US20250144067A1, “PERSONALIZED STARVATION THERAPY FOR CANCER” (Faeth Therapeutics, Inc., priority 2021, published 2025).

Where two headings read alike, the source gives them in different places.

The subject of assay [1] is NCI-H292 lung cancer cells. Put plainly: FDA drug screening, complete media vs cholesterol-free media with simvastatin (TABLE 2). The assay is classed as cell-based, human.
Assay [2] has as its system NCI-H292 lung cancer cells. Briefly: FDA drug screening, complete media vs cholesterol-free media without statin (TABLE 1). The assay is classed as cell-based, human.
Setting [3] is: NCI-H292 cells, cholesterol-free media with simvastatin 0.04 μM, FDA drug library screen (TABLE 2).
The mark [4] stands for this setting: NCI-H292 cells, complete media, FDA drug library screen (TABLE 2).
Setting [5] is: complete media minus cholesterol-free media + simvastatin (0.04 μM), >0 enhanced anti-cancer activity, about 0 neutral, <0 antagonist.
[6] abbreviates: NCI-H292 cells, cholesterol-free media without statin, FDA drug library screen.
Where [7] appears, read: NCI-H292 cells, complete media, FDA drug library screen.
Setting [8] is: NCI-H292 cells, FDA drug library screen, cholesterol-free media with simvastatin 0.04 μM.
[9] abbreviates: NCI-H292 cells, FDA drug library screen, complete media.
[10] abbreviates: complete media vs cholesterol-free media + simvastatin (0.04 μM), >0 enhanced anti-cancer activity, about 0 neutral, <0 antagonist.
Where [11] appears, read: Complete minus Cholesterol-free, >0 enhanced anti-cancer activity, about 0 neutral, <0 antagonist.
The mark [12] stands for this setting: NCI-H292 cells, cholesterol-free media without statin.
Where [13] appears, read: complete media minus cholesterol-free media + simvastatin, >0 enhanced anti-cancer activity, about 0 neutral, <0 antagonist.
Where [14] appears, read: Complete minus Cholesterol-free, greater than 0 enhanced anti-cancer activity, about 0 neutral, below 0 antagonist.
The mark [15] stands for this setting: NCI-H292 cells, FDA drug library screen, cholesterol-free media without statin.
[16] abbreviates: NCI-H292 cells, drug in cholesterol-free media with simvastatin 0.04 μM.
Where [17] appears, read: NCI-H292 cells, drug in complete media.

As for `CC(=O)OCC1=C(C(=O)O)N2C(=O)[C@@H](NC(=O)CSc3ccncc3)[C@H]2SC1` [Cephapirin (sodium)], in assay [1], the “Cholesterol-free media + simvastatin (0.04 μM)” value stood at 2.472, the “Complete Media” value was 1.209 and the Difference is on record as −1.26. Moreover, in assay [2], the Cholesterol-free was 0.9897, the Complete was 1.131 and the Difference is given as 0.14.

In the case of `CC(C)(C)OC(=O)N[C@H]1CCCCC/C=C\[C@@H]2C[C@@]2(C(=O)NS(=O)(=O)C2CC2)NC(=O)[C@@H]2C[C@@H](OC(=O)N3Cc4cccc(F)c4C3)CN2C1=O` [Danoprevir], in assay [1] (setting [3]), the “Cholesterol-free media + simvastatin (0.04 μM)” value worked out at 0.8835. The “Complete Media” value in assay [1] (setting [4]) was found to be 0.8799. For the same compound, the Difference in assay [1] (setting [5]) was 0.00; in assay [2] (complete vs cholesterol-free media, >0 enhanced anti-cancer activity, about 0 neutral, <0 antagonist), 0.45. This compound registered a Cholesterol-free in assay [2] (setting [6]) of 0.802. In addition, the Complete in assay [2] (setting [7]) came to 1.257.

For `COc1cccc(N(C)C(=S)Oc2ccc3c(c2)CCCC3)n1` [Liranaftate], in assay [1], the “Cholesterol-free media + simvastatin (0.04 μM)” value amounted to 0.9604, the “Complete Media” value is 0.9217 and the Difference is given as −0.04. In assay [2], this compound gave a Cholesterol-free of 1.279, a Complete of 0.8388 and a Difference of −0.44.

For the compound Dabigatran etexilate (mesylate), in assay [1] (setting [8]), the “Cholesterol-free media + simvastatin (0.04 μM)” value was determined as 1.092. Moreover, the “Complete Media” value in assay [1] (setting [9]) was found to be 0.9893. In addition, the Difference in assay [1] (setting [10]) is −0.10; in assay [2] (setting [11]) it was −0.23. The Cholesterol-free in assay [2] (setting [12]) was found to be 1.215. Also, the Complete in assay [2] (NCI-H292 cells, complete media) turned out to be 0.9831.

In the case of `C[C@@H]1C[C@H]2[C@@H]3CCC4=CC(=O)C=C[C@]4(C)[C@@]3(F)[C@@H](O)C[C@]2(C)[C@@]1(O)C(=O)CO` [Dexamethasone], the “Cholesterol-free media + simvastatin (0.04 μM)” value in assay [1] (setting [8]) was determined as 0.6107. Also, the “Complete Media” value in assay [1] (setting [9]) turned out to be 0.7971. The values for the Difference in assay [1] (setting [13]) and in assay [2] (setting [11]) were 0.19 and 0.07, respectively. In addition, the Cholesterol-free in assay [2] (setting [6]) is listed as 0.7411. The compound further gave a Complete in assay [2] (setting [7]) of 0.8107.

`C=CC[N+]1([C@H]2C[C@H]3[C@@H]4CC[C@H]5C[C@H](O)[C@@H](N6CCOCC6)C[C@]5(C)[C@H]4CC[C@]3(C)[C@H]2OC(C)=O)CCCC1.[Br-]` [Rocuronium (Bromide)]: in assay [1], the “Cholesterol-free media + simvastatin (0.04 μM)” value came to 0.8493, the “Complete Media” value is reported as 1.097 and the Difference was found to be 0.25. Moreover, in assay [2], the Cholesterol-free was found to be 0.9624, the Complete is reported as 0.9092 and the Difference is reported as −0.05.

`CC(=O)Nc1ccc(OC(=O)c2ccccc2OC(C)=O)cc1` [Benorilate]: the “Cholesterol-free media + simvastatin (0.04 μM)” value in assay [1] (setting [8]) is reported as 1.253. For the same compound, in assay [1] (setting [9]), the “Complete Media” value is 1.11. In addition, the Difference is recorded as −0.14 in assay [1] (setting [10]) and −0.33 in assay [2] (complete vs cholesterol-free media, greater than 0 enhanced anti-cancer activity, about 0 neutral, below 0 antagonists). In assay [2] (setting [12]), this compound returned a Cholesterol-free of 1.212. For the same compound, in assay [2] (NCI-H292 cells, complete media), the Complete stood at 0.8832.

With `CCCCCCCCCCCCCCCC[N+](C)(C)CCN(Cc1ccc(OC)cc1)c1ncccn1.[Br-]` [Thonzonium (bromide)], the “Cholesterol-free media + simvastatin (0.04 μM)” value in assay [1] (setting [8]) was 0.2494. In assay [1] (setting [9]), the “Complete Media” value was found to be 0.5638. For the same compound, the Difference in assay [1] (setting [13]) is 0.31; in assay [2] (setting [14]), −0.13. The Cholesterol-free in assay [2] (setting [15]) worked out at 0.179. Also, the Complete in assay [2] (setting [9]) was determined as 0.05155.

For the compound `Cl.N[C@H]1C(O)O[C@H](CO)[C@@H](O)[C@@H]1O` (stereo partly drawn) [Glucosamine (hydrochloride)], the “Cholesterol-free media + simvastatin (0.04 μM)” value in assay [1] (setting [8]) is 0.9525. In assay [1] (setting [9]), the “Complete Media” value turned out to be 1.178. The Difference in assay [1] (setting [13]) is 0.23; in assay [2] (setting [14]), −0.17. In assay [2] (setting [15]), this compound displayed a Cholesterol-free of 1.116. Besides, the Complete in assay [2] (setting [9]) is 0.9464.

For the compound `NC(=O)[C@@H]1C[C@]2(NC(=O)NC2=O)c2cc(F)ccc2O1` [Fidarestat], in assay [1], the “Cholesterol-free media + simvastatin (0.04 μM)” value was found to be 1.63, the “Complete Media” value is reported as 1.736 and the Difference amounted to 0.11. Moreover, in assay [2], the Cholesterol-free is on record as 1.491, the Complete was found to be 0.686 and the Difference was −0.80.

For `O=C(CCCCC(=O)Nc1c(I)cc(I)c(C(=O)O)c1I)Nc1c(I)cc(I)c(C(=O)O)c1I` [Iodipamide], the “Cholesterol-free media + simvastatin (0.04 μM)” value in assay [1] (setting [16]) was found to be 1.387. Further, in assay [1] (setting [17]), the “Complete Media” value is recorded as 1.135. Further, the Difference in assay [1] (setting [10]) is −0.25; in assay [2] (setting [14]) it was −0.08. The compound also yielded a Cholesterol-free in assay [2] (setting [15]) of 0.9527. In assay [2] (setting [9]), this compound came in with a Complete of 0.876.

Turning to `CC1(C)[C@@H](OC(=O)CCC(=O)O)CC[C@]2(C)[C@H]3C(=O)C=C4[C@@H]5C[C@@](C)(C(=O)O)CC[C@]5(C)CC[C@@]4(C)[C@]3(C)CC[C@@H]12` [Carbenoxolone (disodium)], in assay [1] (setting [3]), the “Cholesterol-free media + simvastatin (0.04 μM)” value was determined as 0.9745. Also, in assay [1] (setting [4]), the “Complete Media” value amounted to 0.9823. Besides, the Difference is 0.01 in assay [1] (setting [5]) and −0.05 in assay [2] (setting [11]). This compound also returned a Cholesterol-free in assay [2] (setting [6]) of 1.149. Also, the Complete in assay [2] (setting [7]) is on record as 1.095.

As for `COc1cc2nccc(Oc3ccc(NC(=O)NC4CC4)c(Cl)c3)c2cc1C(N)=O` [Lenvatinib], the “Cholesterol-free media + simvastatin (0.04 μM)” value in assay [1] (setting [16]) was found to be 1.178. Also, the “Complete Media” value in assay [1] (setting [17]) worked out at 1.01. Also, the Difference in assay [1] (setting [10]) is on record as −0.17; in assay [2] (setting [14]), −0.11. The Cholesterol-free in assay [2] (setting [15]) stood at 1.182. In addition, the Complete in assay [2] (setting [9]) is reported as 1.077.

For `Cc1ccccc1N1C(=O)c2cc(S(N)(=O)=O)c(Cl)cc2NC1C` (stereo not drawn) [Metolazone], the “Cholesterol-free media + simvastatin (0.04 μM)” value in assay [1] (setting [8]) is listed as 1.129. In assay [1] (setting [9]), the “Complete Media” value is reported as 0.9754. Moreover, the Difference in assay [1] (setting [10]) is on record as −0.15; in assay [2] (Complete minus Cholesterol-free, greater than 0 enhanced anti-cancer activity, about 0 neutral, below 0 antagonists) it was −0.62. Besides, the Cholesterol-free in assay [2] (NCI-H292 cells in cholesterol-free media without statin) is 1.469. The Complete in assay [2] (NCI-H292 cells in complete media) is listed as 0.8441.

Turning to `O=C(O)Cc1ccccc1Nc1c(Cl)cccc1Cl` [Diclofenac (Sodium)], in assay [1] (NCI-H292 cells, FDA library drug in cholesterol-free media with simvastatin 0.04 μM), the “Cholesterol-free media + simvastatin (0.04 μM)” value came out at 1.356. In addition, in assay [1] (NCI-H292 cells, FDA library drug in complete media), the “Complete Media” value was 0.9075. Moreover, the Difference is given as −0.45 in assay [1] (setting [10]) and −0.23 in assay [2] (setting [11]). Besides, in assay [2] (setting [12]), the Cholesterol-free is 1.086. In assay [2] (NCI-H292 cells, complete media), the Complete is 0.859.

As to `CO[C@H]1C[C@@H]2CC[C@@H](C)[C@@](O)(O2)C(=O)C(=O)N2CCCC[C@H]2C(=O)O[C@H]([C@H](C)C[C@@H]2CC[C@@H](OCCO)[C@H](OC)C2)CC(=O)[C@H](C)/C=C(\C)[C@@H](O)[C@@H](OC)C(=O)[C@H](C)C[C@H](C)/C=C/C=C/C=C/1C` [Everolimus], in assay [1] (setting [3]), the “Cholesterol-free media + simvastatin (0.04 μM)” value was found to be 0.3946. Also, in assay [1] (setting [4]), the “Complete Media” value was 0.373. Moreover, the Difference in assay [1] (setting [5]) was −0.02; in assay [2] (setting [11]), −0.23. In addition, the Cholesterol-free in assay [2] (setting [12]) amounted to 0.8236. For the same compound, in assay [2] (NCI-H292 cells, complete media), the Complete is listed as 0.5968.
